# Data as given in patent US5925769A, “Acetylenic 1,5-diarylpyrazoles as antiinflammatory agents” (Ortho Pharmaceutical, Corp., priority 1998, dated 1999).
# How the values were obtained:
# 5-LO [1] = molecular target: T1, 5-LO (Rattus norvegicus, UniProt P12527); assay: Procedure II: 5-LO activity (5-HETE) in broken RBL-1 cells (homogenate supernatant); format: biochemical; conditions: RBL-1 broken cell supernatant; read-out: Proc. II 5-LO IC50
# T1 construct: the supernatant was saved as the source of enzymes; endogenous in cells; host or cells: RBL-1 (rat basophilic leukemia) cells
# T1 sequence (P12527 1-673): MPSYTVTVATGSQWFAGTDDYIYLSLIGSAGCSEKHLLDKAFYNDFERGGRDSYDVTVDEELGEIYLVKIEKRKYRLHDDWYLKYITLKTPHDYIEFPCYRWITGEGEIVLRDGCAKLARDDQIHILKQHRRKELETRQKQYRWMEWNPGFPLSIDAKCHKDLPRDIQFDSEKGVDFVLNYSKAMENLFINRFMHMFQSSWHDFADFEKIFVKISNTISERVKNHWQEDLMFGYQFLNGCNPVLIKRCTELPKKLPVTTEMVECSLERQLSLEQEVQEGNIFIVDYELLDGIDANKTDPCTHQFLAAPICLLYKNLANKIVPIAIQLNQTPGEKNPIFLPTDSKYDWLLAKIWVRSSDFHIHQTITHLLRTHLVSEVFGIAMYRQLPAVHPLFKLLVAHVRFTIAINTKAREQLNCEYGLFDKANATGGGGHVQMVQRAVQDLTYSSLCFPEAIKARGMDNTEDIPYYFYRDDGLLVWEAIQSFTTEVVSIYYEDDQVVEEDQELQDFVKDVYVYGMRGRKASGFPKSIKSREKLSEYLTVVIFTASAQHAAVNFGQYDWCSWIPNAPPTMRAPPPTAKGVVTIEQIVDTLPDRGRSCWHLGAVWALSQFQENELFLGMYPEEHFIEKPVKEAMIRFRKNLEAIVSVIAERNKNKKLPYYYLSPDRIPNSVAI
# Outline: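 Supernatant from rat RBL-1 homogenate (9,220×g) was pre-incubated 5 min at 37 °C with 2 mM CaCl2 and compound or 1% DMSO, then with 1-^14C-arachidonic acid for 20 min at 37 °C.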
# 5-LO [2] = molecular target: T1, 5-LO; assay: Procedure III: 5-LO (5-HETE) in intact RBL-1 cells; format: cell-based; conditions: calcium ionophore A 23187, read-out: Proc. III 5-LO IC50
# Outline: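 Intact RBL-1 cells at 1×10^5 cells/mL in HBSS were preincubated with vehicle or drug, pelleted and resuspended, then given 1-^14C-AA. 5-HETE (5-LO) and PgD2 (CO) were separated by TLC after acidification/extraction and quantified by radioimaging; IC50 from regression curve fit.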
# [3] = molecular target: T2, Sheep seminal vesicle (SSV) cyclooxygenase (Ovis aries, UniProt P05979); assay: Procedure I: inhibition of sheep seminal vesicle (SSV) cyclooxygenase; format: biochemical; conditions: SSV cyclooxygenase; read-out: Proc. I IC50
# T2 construct: Sheep seminal vesicle (SSV) cyclooxygenase (95% pure); purchased Biomol (Plymouth Meeting, PA); host or cells: sheep seminal vesicle
# T2 sequence (P05979 25-600): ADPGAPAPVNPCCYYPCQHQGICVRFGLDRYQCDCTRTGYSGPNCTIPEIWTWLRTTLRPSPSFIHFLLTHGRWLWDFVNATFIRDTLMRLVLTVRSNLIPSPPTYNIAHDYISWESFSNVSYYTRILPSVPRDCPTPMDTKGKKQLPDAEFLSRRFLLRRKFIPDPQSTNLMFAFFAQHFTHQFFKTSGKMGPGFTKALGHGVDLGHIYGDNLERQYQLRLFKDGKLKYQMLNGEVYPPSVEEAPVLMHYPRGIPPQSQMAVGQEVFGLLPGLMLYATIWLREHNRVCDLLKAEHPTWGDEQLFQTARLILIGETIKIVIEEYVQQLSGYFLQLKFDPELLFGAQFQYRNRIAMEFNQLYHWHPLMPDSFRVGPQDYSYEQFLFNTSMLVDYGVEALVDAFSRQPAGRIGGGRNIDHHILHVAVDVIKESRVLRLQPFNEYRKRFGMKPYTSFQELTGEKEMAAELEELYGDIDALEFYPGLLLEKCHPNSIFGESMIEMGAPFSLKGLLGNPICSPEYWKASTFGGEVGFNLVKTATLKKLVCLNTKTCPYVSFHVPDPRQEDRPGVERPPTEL
# Outline: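 Turnover of [1-14C]-arachidonic acid by SSV cyclooxygenase ran 20 min after a 5 min preincubation at 37° C with test compound. Products (PGD2, PGE2, etc.) were extracted, resolved by TLC and quantified by radio-imaging; inhibition came from comparing curve areas with and without compound.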
# 5-LO [4] = assay: Procedure IV: ex vivo eicosanoid synthesis assay using dogs, 5-LO (LTB4); format: in vivo; conditions: dog, oral, 5 mg/kg
# Protocol: (§1) Adult beagle or mongrel dogs (10-15 kg) of either sex were fasted overnight prior to the initiation of each experiment. The forelimb was clipped and swabbed with an alcohol prep (70% isopropanol). Blood was drawn by venipuncture into syringes containing lithium heparin (Starstead, Newton, N.C.) immediately prior to administration of compound or vehicle and then at various intervals following dosing. The test compound was administered orally as a suspension in 0.5% methocel. At various times after dosing, blood samples were drawn and placed on an electric rocker platform to assure complete and continuous mixing. White blood cell (wbc) counts were performed using a Sysmex hematology analyzer. This was done in an effort to normalize the number of leukocytes to be stimulated with calcium ionophore. A 1.0 mL aliquot of whole blood was challenged with 50 μL of a 2.6×10^-5 M solution of calcium ionophore A23187 (Calbiochem, La Jolla, Calif.) prepared in DMSO and diluted in HBSS. After a 15 minute incubation at 37° C., the reaction was stopped by placing the samples in an ice bath (4° C.) for 5 minutes and then centrifuging at 11,000×g for 5 minutes to separate the plasma fraction from blood cells. The plasma fraction was removed, diluted in an appropriate buffer, and analyzed for the presence of LTB4 and TxB2 by standard RIA techniques.
# CO = assay: Procedure IV: ex vivo eicosanoid synthesis assay using dogs, CO (TxB2); format: in vivo; conditions: dog, oral, 5 mg/kg
# Protocol: as §1
compound,measurement,setting,value
"COc1ccc(-n2nc(C#CC(C)N(O)C(C)=O)cc2-c2ccc(Cl)cc2)cc1 (stereo not shown) [Cpd 35, N-acetyl-N-(1-(5-(4-chlorophenyl)-1-(4-methoxyphenyl)pyrazol-3-yl)-1-butyn-3-yl)hydroxylamine]",IC50,5-LO [1],0.11 µM
same,IC50,5-LO [2],8.1 µM
same,IC50,[3],2.54 µM
same,% inh 5-LO,5-LO [4]; 2 h,34%
same,% inh 5-LO,5-LO [4]; 4 h,20%
same,% inh 5-LO,5-LO [4]; 6 h,26%
same,% inh 5-LO,5-LO [4]; 8 h,31%
same,% inh 5-LO,5-LO [4]; 24 h,12%
same,% inh CO,CO; 2 h,92%
same,% inh CO,CO; 4 h,75%
same,% inh CO,CO; 6 h,81%
same,% inh CO,CO; 8 h,62%
same,% inh CO,CO; 24 h,68%
